ChEMBL document CHEMBL4033695, “Synthesis and biological evaluation of novel 5-aryl-4-(5-nitrofuran-2-yl)-pyrimidines as potential anti-bacterial agents” (Bioorg Med Chem Lett, 2017)
In brackets after ≈: the same amount, converted by molar mass.

What was measured:
[1] = tested on: Staphylococcus aureus; experiment: Antibacterial activity against Staphylococcus aureus ATCC 25923 by two-fold serial dilution method; type: functional
[2] = tested on: Mycobacterium tuberculosis; experiment: Antitubercular activity against Mycobacterium tuberculosis H37Rv after […] by micro broth dilution method; type: functional
[3] = tested on: Shigella flexneri; experiment: Antibacterial activity against Shigella flexneri RCPM 1a8516 by two-fold serial dilution method; type: functional
[4] = tested on: Neisseria gonorrhoeae; experiment: Potency index, ratio of spectinomycin MIC to compound MIC for Neisseria gonorrhoeae NCTC 12700/ATCC 49226; type: functional
[5] = tested on: Neisseria gonorrhoeae; experiment: Potency index, ratio of spectinomycin MIC to compound MIC for Neisseria gonorrhoeae NCTC 8375/ATCC 19424; type: functional
[6] = Potency index, ratio of compound LD50 to isoniazid LD50 for mouse; type: ADME; conditions: in vivo
[7] = Cytotoxicity against mouse MacCoy B cells after 24 hrs by p-Nitro-Blue tetrazolium chloride dye based colorometric method; type: cell-based
[8] = tested on: Neisseria gonorrhoeae; experiment: Antibacterial activity against Neisseria gonorrhoeae NCTC 12700/ATCC 49226 by two-fold serial dilution method; type: functional
[9] = tested on: Serratia marcescens; experiment: Antibacterial activity against Serratia marcescens ATCC 13880 by two-fold serial dilution method; type: functional
[10] = tested on: Escherichia coli; experiment: Antibacterial activity against Escherichia coli ATCC 8739 by two-fold serial dilution method; type: functional
[11] = tested on: Klebsiella pneumoniae; experiment: Antibacterial activity against Klebsiella pneumoniae ATCC 13883 by two-fold serial dilution method; type: functional
[12] = Toxicity in mouse administered as single oral dose measured for 14 days; conditions: in vivo
[13] = tested on: Proteus vulgaris; experiment: Antibacterial activity against Proteus vulgaris RCPM 160125 (222) by two-fold serial dilution method; type: functional
[14] = tested on: Citrobacter braakii; experiment: Antibacterial activity against Citrobacter braakii ATCC 101/57 by two-fold serial dilution method; type: functional
[15] = tested on: Staphylococcus aureus; experiment: Potency index, ratio of spectinomycin MIC to compound MIC for Staphylococcus aureus ATCC 25923; type: functional
[16] = tested on: Neisseria gonorrhoeae; experiment: Antibacterial activity against gonorrhea patient derived azithromycin resistant-Neisseria gonorrhoeae by two-fold serial dilution method; type: functional
[17] = tested on: Neisseria gonorrhoeae; experiment: Antibacterial activity against Neisseria gonorrhoeae NCTC 8375/ATCC 19424 by two-fold serial dilution method; type: functional
[18] = tested on: Pseudomonas aeruginosa; experiment: Antibacterial activity against Pseudomonas aeruginosa ATCC 9027 by two-fold serial dilution method; type: functional
[19] = Toxicity in orally dosed mouse; type: organism-based; conditions: in vivo, po

| Structure (SMILES) | MIC [1] [µg/mL] | MIC [2] [µg/mL] | MIC [3] [µg/mL] | Ratio [4] | Ratio [5] | selectivity ratio [6] | IC50 [7] [µM] | MIC [8] [µg/mL] | MIC [9] [µg/mL] | MIC [10] [µg/mL] | MIC [11] [µg/mL] | LD50 at 336 h [12] [mg/kg] | MIC [13] [µg/mL] | MIC [14] [µg/mL] | Ratio [15] | MIC [16] [µg/mL] | MIC [17] [µg/mL] | MIC [18] [µg/mL] | LD50 [19] [mg/kg] |
| --- | --- | --- | --- | --- | --- | --- | --- | --- | --- | --- | --- | --- | --- | --- | --- | --- | --- | --- | --- |
| O=[N+]([O-])c1ccc(-c2ncncc2Br)o1 | 7.8 (≈ 28.9 µM) | 1.5 (≈ 5.55 µM) | 7.8 (≈ 28.9 µM) | <=16 | <=16 | 2 | 167 | 0.97 (≈ 3.59 µM) | > 250 | > 250 | > 250 | 300 | > 250 | > 250 | 4 | 3.9 (≈ 14.4 µM) | 7.8 (≈ 28.9 µM) | > 250 |  |
| O=[N+]([O-])c1ccc(-c2ncncc2-c2ccc(F)cc2F)o1 | 31.2 (≈ 103 µM) | 12.5 (≈ 41.2 µM) | > 250 | <=16 | <=16 |  | 66.8 | 3.9 (≈ 12.9 µM) | > 500 | > 500 | > 500 |  | > 250 | > 500 | 4 | 31.2 (≈ 103 µM) | 31.2 (≈ 103 µM) | > 500 |  |
| O=[N+]([O-])c1ccc(-c2ncncc2-c2ccc(C(F)(F)F)cc2C(F)(F)F)o1 | 15.6 (≈ 38.7 µM) | 12.5 (≈ 31 µM) | > 250 | <=16 | <=16 |  | 45.5 | 3.9 (≈ 9.67 µM) | > 500 | > 500 | > 500 |  | > 250 | > 500 | 4 | 1000 (≈ 2480 µM) | 1000 (≈ 2480 µM) | > 500 |  |
| O=[N+]([O-])c1ccc(-c2ncncc2-c2ccccc2)o1 | 15.6 (≈ 58.4 µM) | 3.1 (≈ 11.6 µM) | > 250 | <=16 | <=16 | 3 | 52.5 | 1.95 (≈ 7.3 µM) | > 250 | > 250 | > 250 | 450 | > 250 | > 250 | 4 | 7.8 (≈ 29.2 µM) | 3.9 (≈ 14.6 µM) | > 250 |  |
| O=[N+]([O-])c1ccc(-c2ncncc2-c2ccc(F)cc2)o1 | 62.5 (≈ 219 µM) | 12.5 (≈ 43.8 µM) |  | <=16 | <=16 |  | 69.8 | 31.2 (≈ 110 µM) |  |  |  |  |  |  | 4 | 31.2 (≈ 110 µM) | 15.6 (≈ 54.7 µM) |  |  |
| O=[N+]([O-])c1ccc(-c2ncncc2-c2cc(F)cc(F)c2)o1 |  | 12.5 (≈ 41.2 µM) |  |  |  |  |  |  |  |  |  |  |  |  |  |  | > 1000 |  |  |
| O=[N+]([O-])c1ccc(-c2ncncc2-c2ccccc2C(F)(F)F)o1 | 15.6 (≈ 46.5 µM) | 12.5 (≈ 37.3 µM) | 62.5 (≈ 186 µM) | <=16 | <=16 |  | 74.4 | 3.9 (≈ 11.6 µM) | > 250 | > 250 | > 250 |  | > 250 | > 250 | 4 | 15.6 (≈ 46.5 µM) | 15.6 (≈ 46.5 µM) | > 250 |  |
| O=[N+]([O-])c1ccc(-c2ncncc2-c2ccccc2F)o1 | 15.6 (≈ 54.7 µM) | 12.5 (≈ 43.8 µM) | > 250 | <=16 | <=16 |  | 67.5 | 1.95 (≈ 6.84 µM) | > 250 | > 250 | > 250 |  | > 250 | > 250 | 4 | 7.8 (≈ 27.3 µM) | 7.8 (≈ 27.3 µM) | > 250 |  |
| O=[N+]([O-])c1ccc(-c2ncncc2-c2cc(C(F)(F)F)cc(C(F)(F)F)c2)o1 |  | 12.5 (≈ 31 µM) |  |  |  |  |  |  |  |  |  |  |  |  |  |  | > 1000 |  |  |
| O=[N+]([O-])c1ccc(-c2ncncc2-c2ccc(C(F)(F)F)cc2)o1 |  | 12.5 (≈ 37.3 µM) |  |  |  |  |  |  |  |  |  |  |  |  |  |  | 500 (≈ 1490 µM) |  |  |
| O=[N+]([O-])c1ccc(-c2ncncc2-c2cccc(F)c2)o1 | > 250 | 12.5 (≈ 43.8 µM) | > 250 | <=16 | <=16 |  | 100 | 0.97 (≈ 3.4 µM) | > 250 | > 250 | > 250 |  | > 250 | > 250 | 4 | 15.6 (≈ 54.7 µM) | 3.9 (≈ 13.7 µM) | > 250 |  |
| O=[N+]([O-])c1ccc(-c2ncncc2-c2cccc(C(F)(F)F)c2)o1 |  | 12.5 (≈ 37.3 µM) |  |  |  |  |  |  |  |  |  |  |  |  |  |  | 125 (≈ 373 µM) |  |  |
| NNC(=O)c1ccncc1 [ISONIAZID] |  | 0.1 (≈ 0.729 µM) |  |  |  |  |  |  |  |  |  |  |  |  |  |  |  |  |  |
| NC(=O)c1cnccn1 [PYRAZINAMIDE] |  | 12.5 (≈ 102 µM) |  |  |  |  |  |  |  |  |  |  |  |  |  |  |  |  |  |
| CN[C@@H]1[C@H](O)[C@H](NC)[C@H]2O[C@@]3(O)C(=O)C[C@@H](C)O[C@H]3O[C@@H]2[C@H]1O [SPECTINOMYCIN] | 31.2 (≈ 94 µM) |  | 7.8 (≈ 23.5 µM) |  |  |  | > 752 | 15.6 (≈ 46.9 µM) | 15.6 (≈ 46.9 µM) | 15.6 (≈ 46.9 µM) | 15.6 (≈ 46.9 µM) |  | 125 (≈ 376 µM) | 31.2 (≈ 94 µM) |  | 15.6 (≈ 46.9 µM) | 15.6 (≈ 46.9 µM) | 250 (≈ 752 µM) | > 10000 |
